# ChEMBL document CHEMBL3044753, “Polyamines May Modulate Both G Protein-Coupled Receptors and G Proteins” (Med Chem Res, 2004)
# pEC50: −log10 of the molar value.
# Assays:
# Type in all cases: functional, tissue-based
# [1] = test system: Right cardiac atrium; assay: Negative ionotropic activity in electrically-paced Cavia porcellus (guinea pig) right atrium assessed as effect on force measured immediately by isometric transducer analysis in absence of benzalkonium/prazosin
# [2] = test system: Left cardiac atrium; assay: Negative ionotropic activity in electrically-paced Cavia porcellus (guinea pig) left atrium measured immediately by isometric transducer analysis in absence of benzalkonium/prazosin
# [3] = test system: Right cardiac atrium; assay: Negative […] activity in electrically-paced Cavia porcellus (guinea pig) right atrium assessed as effect on force measured after 60 min by isometric transducer analysis in absence of benextramine/4-DAMP mustard; conditions: 1 h
# [4] = test system: Right cardiac atrium; assay: Negative […] activity in electrically-paced Cavia porcellus (guinea pig) right atrium assessed as effect on force measured after 60 min by isometric transducer analysis in presence of benextramine/4-DAMP mustard; conditions: 1 h
# [5] = test system: Left cardiac atrium; assay: Negative ionotropic activity in electrically-paced Cavia porcellus (guinea pig) left atrium measured after 60 min by isometric transducer analysis in presence of benextramine/4-DAMP mustard; conditions: 1 h
# [6] = test system: Left cardiac atrium; assay: Negative ionotropic activity in electrically-paced Cavia porcellus (guinea pig) left atrium measured after 60 min by isometric transducer analysis in absence of benextramine/4-DAMP mustard; conditions: 1 h
pEC50 [3],pEC50 [4],pEC50 [5],pEC50 [6],SMILES,pEC50 [1],pEC50 [2]
–,–,–,–,C#CCOC(=O)C1=CCCN(C)C1 [ARECAIDINE PROPARGYL ESTER],8.77,8.34
9.38,9.55,9.44,9.38,CCCCCCCCCCCCNC(=O)[C@@H](N)CCCCN [N-DODECYL LYSINE AMIDE],–,–
